Assay results as given in US20150094321A1, “COMBINATION” (GlaxoSmithKline LLC, priority 2009, published 2015).

Key:
Assay in all cases: Cell line proliferation study
Type in all cases: cell-based, human
A549 = conditions: A549, lung; for IC50: Homo sapiens, 72 hours, read-out: gIC50
Description: (§1) In a separate study, combination drug tests with Compounds A and B were conducted using a panel of cell lines from human colon cancers (n=26), lung cancers (n=15) and pancreatic cancers (n=6). Cell lines were obtained from commercial vendors (ATCC and DSMZ). Cell lines were grown in RPMI-1640 supplemented with 2 mM glutamine, 1 mM sodium pyruvate and 10% fetal bovine serum (except for Capan-1 and HuP-T4 which were grown with 20% fetal bovine serum) and maintained at 37° C. and 5% CO2 in a humid incubator. Assays were performed in 384 well microtiter plates with optimum seeding densities for each cell line.
(§2) The test compounds were prepared as 10 mM stocks in 100% DMSO. Further dilutions of the compounds were made in DMSO. Compound A was diluted horizontally in a separate 96 well microtiter plate in rows D-G using a 3-fold dilution series for 10 dilution points. Compound B was similarly diluted horizontally in a 96 well microtiter plate in rows B-E using a 3-fold dilution series for 10 dilution points.
(§3) The two compounds were combined using equal volumes from each drug plate into cell culture media. […] Both Compound A and Compound B were individually titrated in rows B and C (for Compound B) and rows F and G (for Compound A) of the merged drug plate.
(§4) A 1:10 dilution of the drugs was performed in cell culture media prior to addition to the cells.
(§5) The final concentration range for the test compounds was 250 to 0.013 nM for Compound A and 1000 to […] for Compound B. The positive control consisted of culture media with DMSO at 0.1% and cells. The negative control consisted of culture media with DMSO at 0.1%. The cell lines were incubated at 37° C., 5% CO2 in humid air for 72 hours. Cell proliferation was measured using the CellTiter Glo (Promega) reagent according to the manufacturer's protocol. The plates are treated with CellTiter Glo solution and are analyzed for RLU (relative light units) using a Molecular Devices SpectraMax M5 plate reader.
(§6) The percent intensity values were used in model 205 of XLfit (IDBS, Inc.) in Microsoft Excel to calculate gIC50 values using a 4 parameter logistical fit. The midpoint of the growth window (the gIC50) falls half way between the number of cells at the time of compound addition (T=0) and the growth of control cells treated with DMSO at 72 hrs. The number of cells at time zero (T0) is divided from the intensity value at the bottom of the response curve (Ymin) to generate a measure for cell death (Ymin/T0). A value below 1 for Ymin/T0 indicates stronger potency to induce cell death with the treatment when compared to higher values. […]

BxPC3 = conditions: BxPC3, pancreas; for IC50: Homo sapiens, BXPC-3, 72 hours, read-out: gIC50
Description: as §1, §2, §3, §4, §5, §6

Colo201 = conditions: Colo201, colon; for IC50: Homo sapiens, COLO 201, 72 hours, read-out: gIC50
Description: as §1, §2, §3, §4, §5, §6

Colo205 = conditions: Colo205, colon; for IC50: Homo sapiens, COLO 205, 72 hours, read-out: gIC50
Description: as §1, §2, §3, §4, §5, §6

Colo320DM = conditions: colon; for IC50: Homo sapiens, COLO 320DM, 72 hours, read-out: gIC50
Description: as §1, §2, §3, §4, §5, §6

Colo320HSR = conditions: colon; for IC50: Homo sapiens, COLO-320-HSR, 72 hours, read-out: gIC50
Description: as §1, §2, §3, §4, §5, §6

DLD1 = conditions: DLD1, colon; for IC50: Homo sapiens, DLD-1, 72 hours, read-out: gIC50
Description: as §1, §2, §3, §4, §5, §6

HCC2998 = conditions: HCC2998, colon; for IC50: Homo sapiens, HCC 2998, 72 hours, read-out: gIC50
Description: as §1, §2, §3, §4, §5, §6

HCT-15 = conditions: HC115, colon; for IC50: Homo sapiens, HCT-15, 72 hours, read-out: gIC50
Description: as §1, §2, §3, §4, §5, §6

HCT116 = conditions: HCT116, colon; for IC50: Homo sapiens, HCT-116, 72 hours, read-out: gIC50
Description: as §1, §2, §3, §4, §5, §6

NCIH2170 = conditions: NCIH2170, lung; for IC50: Homo sapiens, NCI-H2170, 72 hours, read-out: gIC50
Description: as §1, §2, §3, §4, §5, §6

NCIH2228 = conditions: NCIH2228, lung; for IC50: Homo sapiens, NCI-H2228, 72 hours, read-out: gIC50
Description: as §1, §2, §3, §4, §5, §6

NCIH23 = conditions: NCIH23, lung; for IC50: Homo sapiens, NCI-H23, 72 hours, read-out: gIC50
Description: as §1, §2, §3, §4, §5, §6

NCIH358 = conditions: NCIH358, lung; for IC50: Homo sapiens, NCI-H358, 72 hours, read-out: gIC50
Description: as §1, §2, §3, §4, §5, §6

NCIH508 = conditions: NCIH508, colon; for IC50: Homo sapiens, NCI-H508, 72 hours, read-out: gIC50
Description: as §1, §2, §3, §4, §5, §6

NCIH520 = conditions: NCIH520, lung; for IC50: Homo sapiens, NCI-H520, 72 hours, read-out: gIC50
Description: as §1, §2, §3, §4, §5, §6

NCIH747 = conditions: NCIH747, colon; for IC50: Homo sapiens, NCI-H747, 72 hours, read-out: gIC50
Description: as §1, §2, §3, §4, §5, §6

RKO = conditions: colon; for IC50: Homo sapiens, 72 hours, read-out: gIC50
Description: as §1, §2, §3, §4, §5, §6

SKMES1 = conditions: SKMES1, lung; for IC50: Homo sapiens, SK-MES-1, 72 hours, read-out: gIC50
Description: as §1, §2, §3, §4, §5, §6

SW1116 = conditions: SW1116, colon; for IC50: Homo sapiens, SW 1116, 72 hours, read-out: gIC50
Description: as §1, §2, §3, §4, §5, §6

| IC50 (A549) | IC50 (BxPC3) | IC50 (Colo201) | IC50 (Colo205) | IC50 (Colo320DM) | IC50 (Colo320HSR) | IC50 (DLD1) | IC50 (HCC2998) | IC50 (HCT-15) | IC50 (HCT116) | SMILES | Ymin/T0 (A549) | Ymin/T0 (BxPC3) | Ymin/T0 (Colo201) | Ymin/T0 (Colo205) | Ymin/T0 (Colo320DM) | Ymin/T0 (Colo320HSR) | Ymin/T0 (DLD1) | Ymin/T0 (HCC2998) | Ymin/T0 (HCT-15) | Ymin/T0 (HCT116) | further results |
| --- | --- | --- | --- | --- | --- | --- | --- | --- | --- | --- | --- | --- | --- | --- | --- | --- | --- | --- | --- | --- | --- |
| 0.0129 µM | > 0.25 µM | 0.004 µM | 0.00077 µM | > 0.25 µM | > 0.25 µM | 0.342 µM | 0.0167 µM | > 0.25 µM | 0.0232 µM | CC(=O)Nc1cccc(-n2c(=O)n(C3CC3)c(=O)c3c(Nc4ccc(I)cc4F)n(C)c(=O)c(C)c32)c1 [Compound A, N-{3-[3-cyclopropyl-5-(2-fluoro-4-iodo-phenylamino)-6,8-dimethyl-2,4,7-trioxo-3,4,6,7-tetrahydro-2H-pyrido[4,3-d]pyrimidin-1-yl]phenyl}acetamide] | 15.9 | 20.86 | −8.96 | −1.30 | 81.01 | 78.4 | 397 | 2.13 | 57.0 | 19.40 | IC50 (NCIH2170): > 0.25 µM; Ymin/T0 (NCIH2170): 59.5; IC50 (NCIH2228): > 0.25 µM; Ymin/T0 (NCIH2228): 39.7; IC50 (NCIH23): > 0.25 µM; Ymin/T0 (NCIH23): 36.3; IC50 (NCIH358): 0.0173 µM; Ymin/T0 (NCIH358): 10.7; IC50 (NCIH508): 0.0226 µM; Ymin/T0 (NCIH508): 15.22; IC50 (NCIH520): > 0.25 µM; Ymin/T0 (NCIH520): 70.2; IC50 (NCIH747): 0.00535 µM; Ymin/T0 (NCIH747): 5.55; IC50 (RKO): 0.0778 µM; Ymin/T0 (RKO): 24.44; IC50 (SKMES1): 0.0804 µM; Ymin/T0 (SKMES1): 19.5; IC50 (SW1116): 0.0146 µM; Ymin/T0 (SW1116): 2.28 |
| > 1 µM | > 1 µM | > 1 µM | > 1 µM | > 1 µM | > 1 µM | > 1 µM | 0.292 µM | > 1 µM | > 1 µM | Cn1ncc(Cl)c1-c1cc(C(=O)N[C@H](CN)Cc2ccc(F)c(F)c2)oc1Cl [Compound B, N-{(1S)-2-amino-1-[(3,4-difluorophenyl)methyl]ethyl}-5-chloro-4-(4-chloro-1-methyl-1H-pyrazol-5-yl)-2-furancarboxamide] | 32.7 | 71.87 | 80.16 | 14.87 | 9.81 | 28.6 | 29.0 | −4.90 | 30.4 | 25.31 | IC50 (NCIH2170): > 1 µM; Ymin/T0 (NCIH2170): 18.2; IC50 (NCIH2228): > 1 µM; Ymin/T0 (NCIH2228): 37.1; IC50 (NCIH23): > 1 µM; Ymin/T0 (NCIH23): 41.5; IC50 (NCIH358): > 1 µM; Ymin/T0 (NCIH358): 37.2; IC50 (NCIH508): 0.0682 µM; Ymin/T0 (NCIH508): 11.12; IC50 (NCIH520): 0.568 µM; Ymin/T0 (NCIH520): 15.0; IC50 (NCIH747): > 1 µM; Ymin/T0 (NCIH747): 23.79; IC50 (RKO): > 1 µM; Ymin/T0 (RKO): 17.13; IC50 (SKMES1): > 1 µM; Ymin/T0 (SKMES1): 49.6; IC50 (SW1116): > 1 µM; Ymin/T0 (SW1116): 37.32 |
